Source: PubChem BioAssay (NCI)
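Results reflect a 48-hour exposure of cells in 96-well plates to compound at five concentrations. The concentration for 50% growth inhibition is given as GI50. TGI: concentration producing complete growth inhibition.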

Experiments:
Assay in all cases: NCI tumour cell line growth inhibition, 48 h
NCI/ADR-RES ovarian = tested on: NCI/ADR-RES ovarian
UACC-257 melanoma = tested on: UACC-257 melanoma
NCI-H460 lung = tested on: NCI-H460 lung
HOP-92 NSCLC = tested on: HOP-92 NSCLC
HT29 colon = tested on: HT29 colon
786-0 renal = tested on: 786-0 renal
SN12C renal = tested on: SN12C renal
CCRF-CEM leukemia = tested on: CCRF-CEM leukemia
DU-145 prostate = tested on: DU-145 prostate
TK-10 renal = tested on: TK-10 renal
NCI-H23 lung = tested on: NCI-H23 lung
OVCAR-3 ovarian = tested on: OVCAR-3 ovarian
PC-3 prostate = tested on: PC-3 prostate
SNB-19 CNS = tested on: SNB-19 CNS
SK-OV-3 ovarian = tested on: SK-OV-3 ovarian
UO-31 renal = tested on: UO-31 renal
HS 578T breast = tested on: HS 578T breast
IGROV1 ovarian = tested on: IGROV1 ovarian
NCI-H226 lung = tested on: NCI-H226 lung
COLO 205 colon = tested on: COLO 205 colon
OVCAR-4 ovarian = tested on: OVCAR-4 ovarian
MOLT-4 leukemia = tested on: MOLT-4 leukemia
NCI-H522 lung = tested on: NCI-H522 lung
SF-539 CNS = tested on: SF-539 CNS
ACHN renal = tested on: ACHN renal
MALME-3M melanoma = tested on: MALME-3M melanoma
CAKI-1 renal = tested on: CAKI-1 renal
SF-295 CNS = tested on: SF-295 CNS
SF-268 CNS = tested on: SF-268 CNS
HCC-2998 colon = tested on: HCC-2998 colon
UACC-62 melanoma = tested on: UACC-62 melanoma
MDA-MB-435 = tested on: MDA-MB-435
M14 melanoma = tested on: M14 melanoma
U251 CNS = tested on: U251 CNS
LOX IMVI melanoma = tested on: LOX IMVI melanoma
EKVX NSCLC = tested on: EKVX NSCLC
A549 NSCLC = tested on: A549 NSCLC
RXF 393 renal = tested on: RXF 393 renal
MCF7 breast = tested on: MCF7 breast
HL-60(TB) leukemia = tested on: HL-60(TB) leukemia
OVCAR-5 ovarian = tested on: OVCAR-5 ovarian
SK-MEL-2 melanoma = tested on: SK-MEL-2 melanoma
A498 renal = tested on: A498 renal
SR leukemia = tested on: SR leukemia
HCT-116 colon = tested on: HCT-116 colon
MDA-MB-231 breast = tested on: MDA-MB-231 breast
SK-MEL-28 melanoma = tested on: SK-MEL-28 melanoma
SNB-75 CNS = tested on: SNB-75 CNS
OVCAR-8 ovarian = tested on: OVCAR-8 ovarian
BT-549 breast = tested on: BT-549 breast
HCT-15 colon = tested on: HCT-15 colon
KM12 colon = tested on: KM12 colon
SK-MEL-5 melanoma = tested on: SK-MEL-5 melanoma
HOP-62 NSCLC = tested on: HOP-62 NSCLC
SW-620 colon = tested on: SW-620 colon
T-47D breast = tested on: T-47D breast
RPMI-8226 leukemia = tested on: RPMI-8226 leukemia
K-562 leukemia = tested on: K-562 leukemia

CCOC(=O)c1cc2c(OC(C)=O)ccc(OC(C)=O)c2s1
TGI (NCI/ADR-RES ovarian): 5.79 µM
TGI (UACC-257 melanoma): 4.97 µM
TGI (NCI-H460 lung): 22.2 µM
TGI (HOP-92 NSCLC): 3.16 µM
TGI (HT29 colon): 10.7 µM
TGI (786-0 renal): 6.24 µM
TGI (SN12C renal): 5.11 µM
TGI (CCRF-CEM leukemia): 5.29 µM
TGI (DU-145 prostate): 17.1 µM
TGI (TK-10 renal): 17.5 µM
TGI (NCI-H23 lung): 5.51 µM
TGI (OVCAR-3 ovarian): 3.15 µM
TGI (PC-3 prostate): 5.07 µM
TGI (SNB-19 CNS): 19.9 µM
TGI (SK-OV-3 ovarian): 22.7 µM
TGI (UO-31 renal): 2.76 µM
TGI (HS 578T breast): 5.51 µM
TGI (IGROV1 ovarian): 6.52 µM
TGI (NCI-H226 lung): 55 µM
TGI (COLO 205 colon): 4.81 µM
TGI (OVCAR-4 ovarian): 31.3 µM
TGI (MOLT-4 leukemia): > 24 µM
TGI (NCI-H522 lung): 1.07 µM
TGI (SF-539 CNS): 3.36 µM
TGI (ACHN renal): 2.98 µM
TGI (MALME-3M melanoma): 3.6 µM
TGI (CAKI-1 renal): 8.46 µM
TGI (SF-295 CNS): 18.3 µM
TGI (SF-268 CNS): 3.85 µM
TGI (HCC-2998 colon): 22.2 µM
TGI (UACC-62 melanoma): 4.08 µM
TGI (MDA-MB-435): 7.38 µM
TGI (M14 melanoma): 3.26 µM
TGI (U251 CNS): 10.4 µM
TGI (LOX IMVI melanoma): 3.09 µM
TGI (EKVX NSCLC): 7.73 µM
TGI (A549 NSCLC): 28.6 µM
TGI (RXF 393 renal): 3.42 µM
TGI (MCF7 breast): 11.8 µM
TGI (HL-60(TB) leukemia): 2.97 µM
TGI (OVCAR-5 ovarian): 18.9 µM
TGI (SK-MEL-2 melanoma): 7.72 µM
TGI (A498 renal): 12.5 µM
TGI (SR leukemia): > 22.7 µM
TGI (HCT-116 colon): 9 µM
TGI (MDA-MB-231 breast): 4.64 µM
TGI (SK-MEL-28 melanoma): 5.45 µM
TGI (SNB-75 CNS): 5.62 µM
TGI (OVCAR-8 ovarian): 3.51 µM
TGI (BT-549 breast): 4.97 µM
TGI (HCT-15 colon): 3.34 µM
TGI (KM12 colon): 17.6 µM
TGI (SK-MEL-5 melanoma): 6.69 µM
TGI (HOP-62 NSCLC): 23.9 µM

N=C(N)c1ccc(-c2ccc(-c3ccc(F)cc3)s2)cc1
GI50 (DU-145 prostate): 1.63 µM
TGI (DU-145 prostate): 2.98 µM
GI50 (SR leukemia): 0.307 µM
TGI (SR leukemia): > 100 µM

CN(C)[C@@H]1C(=O)C(C(N)=O)=C(O)[C@@]2(O)C(=O)C3=C(O)c4c(O)cc(CN5CCc6ccccc6C5)c(Cl)c4C[C@H]3C[C@@H]12
GI50 (NCI-H460 lung): 1.79 µM
TGI (NCI-H460 lung): 3.4 µM
GI50 (786-0 renal): 1.76 µM
TGI (786-0 renal): 3.3 µM
GI50 (DU-145 prostate): 1.64 µM
TGI (DU-145 prostate): 3.04 µM
GI50 (SK-OV-3 ovarian): 1.73 µM
TGI (SK-OV-3 ovarian): 3.18 µM
GI50 (SW-620 colon): 1.92 µM
TGI (SW-620 colon): 3.6 µM
GI50 (M14 melanoma): 1.61 µM
TGI (M14 melanoma): 3.03 µM
GI50 (OVCAR-5 ovarian): 1.62 µM
TGI (OVCAR-5 ovarian): 3.02 µM
GI50 (A498 renal): 1.76 µM
TGI (A498 renal): 3.29 µM
GI50 (HCT-116 colon): 1.6 µM
TGI (HCT-116 colon): 2.97 µM
GI50 (HCT-15 colon): 0.0531 µM
TGI (HCT-15 colon): 2.36 µM

Oc1ccc2oc3ncc(Cl)c(-c4ccccc4)c3c2c1
GI50 (T-47D breast): > 100 µM
TGI (T-47D breast): > 100 µM
GI50 (NCI/ADR-RES ovarian): > 100 µM
TGI (NCI/ADR-RES ovarian): > 100 µM
GI50 (UACC-257 melanoma): > 100 µM
TGI (UACC-257 melanoma): > 100 µM
GI50 (NCI-H460 lung): > 100 µM
TGI (NCI-H460 lung): > 100 µM
GI50 (HOP-92 NSCLC): > 100 µM
TGI (HOP-92 NSCLC): > 100 µM
GI50 (HT29 colon): > 100 µM
TGI (HT29 colon): > 100 µM
GI50 (786-0 renal): 0.0939 µM
TGI (786-0 renal): > 100 µM
GI50 (RPMI-8226 leukemia): > 100 µM
TGI (RPMI-8226 leukemia): > 100 µM
GI50 (SN12C renal): > 100 µM
TGI (SN12C renal): > 100 µM
GI50 (CCRF-CEM leukemia): 21.2 µM
TGI (CCRF-CEM leukemia): 63.2 µM
GI50 (DU-145 prostate): > 100 µM
TGI (DU-145 prostate): > 100 µM
GI50 (TK-10 renal): > 100 µM
TGI (TK-10 renal): > 100 µM
GI50 (NCI-H23 lung): > 100 µM
TGI (NCI-H23 lung): > 100 µM
GI50 (OVCAR-3 ovarian): > 100 µM
TGI (OVCAR-3 ovarian): > 100 µM
GI50 (PC-3 prostate): > 100 µM
TGI (PC-3 prostate): > 100 µM
GI50 (SNB-19 CNS): > 100 µM
TGI (SNB-19 CNS): > 100 µM
GI50 (SK-OV-3 ovarian): > 100 µM
TGI (SK-OV-3 ovarian): > 100 µM
GI50 (UO-31 renal): > 100 µM
TGI (UO-31 renal): > 100 µM
GI50 (HS 578T breast): > 100 µM
TGI (HS 578T breast): > 100 µM
GI50 (IGROV1 ovarian): > 100 µM
TGI (IGROV1 ovarian): > 100 µM
GI50 (NCI-H226 lung): > 100 µM
TGI (NCI-H226 lung): > 100 µM
GI50 (COLO 205 colon): > 100 µM
TGI (COLO 205 colon): > 100 µM
GI50 (OVCAR-4 ovarian): > 100 µM
TGI (OVCAR-4 ovarian): > 100 µM
GI50 (MOLT-4 leukemia): > 100 µM
TGI (MOLT-4 leukemia): > 100 µM
GI50 (NCI-H522 lung): > 100 µM
TGI (NCI-H522 lung): > 100 µM
GI50 (SW-620 colon): > 100 µM
TGI (SW-620 colon): > 100 µM
GI50 (SF-539 CNS): > 100 µM
TGI (SF-539 CNS): > 100 µM
GI50 (ACHN renal): > 100 µM
TGI (ACHN renal): > 100 µM
GI50 (MALME-3M melanoma): > 100 µM
TGI (MALME-3M melanoma): > 100 µM
GI50 (CAKI-1 renal): > 100 µM
TGI (CAKI-1 renal): > 100 µM
GI50 (SF-295 CNS): > 100 µM
TGI (SF-295 CNS): > 100 µM
GI50 (SF-268 CNS): > 100 µM
TGI (SF-268 CNS): > 100 µM
GI50 (UACC-62 melanoma): > 100 µM
TGI (UACC-62 melanoma): > 100 µM
GI50 (MDA-MB-435): > 100 µM
TGI (MDA-MB-435): > 100 µM
GI50 (M14 melanoma): > 100 µM
TGI (M14 melanoma): > 100 µM
GI50 (U251 CNS): > 100 µM
TGI (U251 CNS): > 100 µM
GI50 (LOX IMVI melanoma): > 100 µM
TGI (LOX IMVI melanoma): > 100 µM
GI50 (EKVX NSCLC): > 100 µM
TGI (EKVX NSCLC): > 100 µM
GI50 (A549 NSCLC): > 100 µM
TGI (A549 NSCLC): > 100 µM
GI50 (RXF 393 renal): > 100 µM
TGI (RXF 393 renal): > 100 µM
GI50 (MCF7 breast): > 100 µM
TGI (MCF7 breast): > 100 µM
GI50 (HL-60(TB) leukemia): > 100 µM
TGI (HL-60(TB) leukemia): > 100 µM
GI50 (OVCAR-5 ovarian): > 100 µM
TGI (OVCAR-5 ovarian): > 100 µM
GI50 (SK-MEL-2 melanoma): > 100 µM
TGI (SK-MEL-2 melanoma): > 100 µM
GI50 (K-562 leukemia): > 100 µM
TGI (K-562 leukemia): > 100 µM
GI50 (A498 renal): > 100 µM
TGI (A498 renal): > 100 µM
GI50 (HCT-116 colon): > 100 µM
TGI (HCT-116 colon): > 100 µM
GI50 (MDA-MB-231 breast): > 100 µM
TGI (MDA-MB-231 breast): > 100 µM
GI50 (SK-MEL-28 melanoma): > 100 µM
TGI (SK-MEL-28 melanoma): > 100 µM
GI50 (SNB-75 CNS): > 100 µM
TGI (SNB-75 CNS): > 100 µM
GI50 (OVCAR-8 ovarian): > 100 µM
TGI (OVCAR-8 ovarian): > 100 µM
GI50 (HCT-15 colon): > 100 µM
TGI (HCT-15 colon): > 100 µM
GI50 (KM12 colon): > 100 µM
TGI (KM12 colon): > 100 µM
GI50 (SK-MEL-5 melanoma): > 100 µM
TGI (SK-MEL-5 melanoma): > 100 µM

N=C(N)c1ccc(-c2ccc(-c3ccccc3)s2)cc1F
GI50 (DU-145 prostate): 1.13 µM
TGI (DU-145 prostate): 2.38 µM
